PMC3800051 (Bioorganic & medicinal chemistry letters, 2009)
“Also recorded” adds a separate entry of the source.

What was measured:
[1] = target: T1, PLD1 (Homo sapiens, UniProt Q13393); settings: cellular assay, Calu-1 cells
T1 sequence (Q13393 1-1074): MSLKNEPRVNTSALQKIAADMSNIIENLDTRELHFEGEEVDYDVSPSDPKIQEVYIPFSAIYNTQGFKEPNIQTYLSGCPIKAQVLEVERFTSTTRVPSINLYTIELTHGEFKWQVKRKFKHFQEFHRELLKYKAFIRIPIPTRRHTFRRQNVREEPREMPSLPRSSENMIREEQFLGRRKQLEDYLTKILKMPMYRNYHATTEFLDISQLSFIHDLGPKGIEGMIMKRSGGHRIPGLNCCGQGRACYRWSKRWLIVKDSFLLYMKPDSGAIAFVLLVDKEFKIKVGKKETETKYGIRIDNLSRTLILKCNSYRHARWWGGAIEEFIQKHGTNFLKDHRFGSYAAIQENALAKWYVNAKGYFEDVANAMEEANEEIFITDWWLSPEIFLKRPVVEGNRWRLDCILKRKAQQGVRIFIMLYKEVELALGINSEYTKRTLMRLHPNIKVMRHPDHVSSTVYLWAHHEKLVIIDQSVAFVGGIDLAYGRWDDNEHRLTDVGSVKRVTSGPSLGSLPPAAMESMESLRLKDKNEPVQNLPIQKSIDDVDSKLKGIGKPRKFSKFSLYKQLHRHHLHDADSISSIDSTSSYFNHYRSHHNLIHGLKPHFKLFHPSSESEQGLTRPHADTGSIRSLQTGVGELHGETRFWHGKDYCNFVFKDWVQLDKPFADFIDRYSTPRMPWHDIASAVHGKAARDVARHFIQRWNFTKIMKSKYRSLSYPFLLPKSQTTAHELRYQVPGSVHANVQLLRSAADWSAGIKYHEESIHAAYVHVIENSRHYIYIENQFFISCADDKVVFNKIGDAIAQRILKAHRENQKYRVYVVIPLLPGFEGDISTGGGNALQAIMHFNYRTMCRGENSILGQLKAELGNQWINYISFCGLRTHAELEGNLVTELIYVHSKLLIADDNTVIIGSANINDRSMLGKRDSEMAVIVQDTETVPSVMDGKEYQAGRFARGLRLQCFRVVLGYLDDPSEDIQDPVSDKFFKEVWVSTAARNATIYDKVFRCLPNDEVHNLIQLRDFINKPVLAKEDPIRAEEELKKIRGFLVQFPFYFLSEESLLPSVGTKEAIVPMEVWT

[2] = target: PLD2 (Homo sapiens, UniProt O14939); settings: cellular assay, HEK293-gfpPLD2 cells
PLD2, sequence (O14939 whole entry): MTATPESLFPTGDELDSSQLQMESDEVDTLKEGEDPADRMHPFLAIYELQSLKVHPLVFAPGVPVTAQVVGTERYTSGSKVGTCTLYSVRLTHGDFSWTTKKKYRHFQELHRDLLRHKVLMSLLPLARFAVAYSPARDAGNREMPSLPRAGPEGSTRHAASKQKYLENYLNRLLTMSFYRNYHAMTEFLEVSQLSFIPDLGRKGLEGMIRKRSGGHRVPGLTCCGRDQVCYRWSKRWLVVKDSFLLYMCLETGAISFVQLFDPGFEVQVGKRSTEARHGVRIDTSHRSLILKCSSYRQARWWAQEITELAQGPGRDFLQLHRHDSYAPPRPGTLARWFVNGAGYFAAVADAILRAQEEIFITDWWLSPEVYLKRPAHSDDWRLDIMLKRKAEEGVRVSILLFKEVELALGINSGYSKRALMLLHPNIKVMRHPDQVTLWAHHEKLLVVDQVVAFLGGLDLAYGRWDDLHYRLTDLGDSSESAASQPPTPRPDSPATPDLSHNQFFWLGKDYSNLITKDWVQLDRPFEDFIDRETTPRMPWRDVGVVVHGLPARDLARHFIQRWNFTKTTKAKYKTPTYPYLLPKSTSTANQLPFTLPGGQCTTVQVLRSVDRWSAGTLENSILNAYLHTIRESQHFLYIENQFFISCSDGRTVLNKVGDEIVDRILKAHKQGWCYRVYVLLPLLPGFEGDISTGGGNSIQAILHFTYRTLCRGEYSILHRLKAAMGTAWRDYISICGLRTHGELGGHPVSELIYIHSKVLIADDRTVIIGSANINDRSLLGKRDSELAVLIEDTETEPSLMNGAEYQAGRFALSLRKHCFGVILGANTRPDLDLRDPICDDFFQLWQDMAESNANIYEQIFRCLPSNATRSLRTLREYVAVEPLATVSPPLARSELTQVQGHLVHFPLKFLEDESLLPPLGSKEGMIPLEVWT

[3] = target: T1, PLD1; assay: cell-based

SMILES | PLD1 inhibition (in words) [1] | PLD2 inhibition (in words) [2] | IC50 [3]
O=C(NCCN1CCC2(CC1)C(=O)NCN2c1ccccc1)[C@H]1C[C@@H]1c1ccccc1 [Compound 9a] | inactive on both PLD isoforms; also recorded: complete loss of PLD inhibition | inactive on both PLD isoforms; also recorded: complete loss of PLD inhibition | –
O=C(NCCN1CCC2(CC1)C(=O)NCN2c1ccccc1)c1cnc2ccccc2n1 [Compound 9g] | complete loss of PLD inhibitory activity | complete loss of PLD inhibitory activity | –
C[C@@H](CN1CCC2(CC1)C(=O)NCN2c1ccccc1)NC(=O)[C@H]1C[C@@H]1c1ccccc1 [Compound 10b] | – | no effect, relative to 9a, on PLD2 inhibition | –
c1cc(N2CCNCC2)ccn1 [Compound 15] | – | – | 3.6 to 18 µM
c1ccc(N2CCNCC2)nc1 [Compound 16] | – | – | 3.6 to 18 µM
